“And” between values parts separate entries of the source, which are not always exact repeats. Equal entries are not always repeated. Toxic doses and inconclusive results are not listed.

For the assay, the system named is AKR/Lw mice, AKR lymphoma ip, median survival T/C. The assay is described as follows: NCI In Vivo Anticancer Drug Screen. Data for tumor model Lymphoma AKR (Transplanted) (intraperitoneal) in AKR/Lw mice. As to conditions: endpoint: median survival time, higher = longer survival. As for the experimental part:
The antitumor activity of compounds was measured in mice bearing transplantable tumors. Survival or tumor size were measured and the results are expressed as the measurement made in the treated group (T) divided by the measurement made in the vehicle treated control group (C). The tumor model used in this assay is Lymphoma AKR (Transplanted) (intraperitoneal) in AKR/Lw mice

Where [1] appears, read: dose: 100.0 mg/kg/injection, schedule: Q01DX001 (ip), vehicle: saline with Tween-80.
Where [2] appears, read: dose: 100.0 mg/kg/injection, schedule: Q01DX001 (ip), vehicle: Klucel (hydroxypropylcellulose) (HPC).
The mark [3] stands for this setting: dose: 200.0 mg/kg/injection, schedule: Q01DX001 (ip), vehicle: Klucel (hydroxypropylcellulose) (HPC).
The mark [4] stands for this setting: dose: 400.0 mg/kg/injection, schedule: Q01DX001 (ip), vehicle: Klucel (hydroxypropylcellulose) (HPC).
The mark [5] stands for this setting: dose: 100.0 mg/kg/injection, schedule: Q04DX003 (ip), vehicle: Klucel (hydroxypropylcellulose) (HPC).
[6] abbreviates: dose: 200.0 mg/kg/injection, schedule: Q04DX003 (ip), vehicle: Klucel (hydroxypropylcellulose) (HPC).
Setting [7] is: dose: 400.0 mg/kg/injection, schedule: Q04DX003 (ip), vehicle: Klucel (hydroxypropylcellulose) (HPC).
Setting [8] is: dose: 50.0 mg/kg/injection, schedule: Q01DX001 (ip), vehicle: saline.
Where [9] appears, read: dose: 100.0 mg/kg/injection, schedule: Q01DX001 (ip), vehicle: saline.
The mark [10] stands for this setting: dose: 200.0 mg/kg/injection, schedule: Q01DX001 (ip), vehicle: saline.

In the case of `S=c1nc(-c2ccccc2)c(-c2ccccc2)n[nH]1`, the T/C was 106 % of control under setting [1]; 103 % of control (dose: 200.0 mg/kg/injection, schedule: Q01DX001 (ip), vehicle: saline with Tween-80); 112 % of control (dose: 400.0 mg/kg/injection, schedule: Q01DX001 (ip), vehicle: saline with Tween-80).
For `NS(=O)(=O)c1ccc(N=Nc2nc3ncnc(SCc4cccs4)c3[nH]2)cc1`, the T/C is, setting by setting: under setting [2], 97 % of control; under setting [3], 102 % of control; under setting [4], 107 % of control.
In the case of `C1CCN2CC3CC(CN4CCCCC34)C2C1` (configuration not stated), the T/C was 100 % of control (dose: 10.0 mg/kg/injection, schedule: Q01DX001 (ip), vehicle: saline); 100 % of control (dose: 20.0 mg/kg/injection, schedule: Q01DX001 (ip), vehicle: saline); 100 % of control (dose: 40.0 mg/kg/injection, schedule: Q01DX001 (ip), vehicle: saline).
On to `COc1ccc(Br)cc1/C=N\NS(=O)(=O)c1ccc(C)cc1`, for which the T/C is 106 % of control under setting [2]; 106 % of control under setting [5]; 100 % of control under setting [3]; 86 % of control under setting [6]; 100 % of control under setting [4]; 86 % of control under setting [7].
For `O=NN(CCCl)C(=O)NC1CCCCC1`, the T/C runs as follows: (dose: 2.0 mg/kg/injection, schedule: Q04DX003 (ip), vehicle: Klucel (hydroxypropylcellulose) (HPC)) 102 % of control; (dose: 2.5 mg/kg/injection, schedule: Q01DX001 (ip), vehicle: Klucel (hydroxypropylcellulose) (HPC)) 109 % of control; (dose: 4.4 mg/kg/injection, schedule: Q04DX003 (ip), vehicle: Klucel (hydroxypropylcellulose) (HPC)) 106 % of control; (dose: 5.0 mg/kg/injection, schedule: Q01DX001 (ip), vehicle: Klucel (hydroxypropylcellulose) (HPC)) 111 % of control; (dose: 5.0 mg/kg/injection, schedule: Q04DX004 (ip), vehicle: Klucel (hydroxypropylcellulose) (HPC)) 100 % of control; (dose: 6.25 mg/kg/injection, schedule: Q07DX003 (ip), vehicle: saline) 109 % of control. For the same molecule, the T/C was 122 % of control (dose: 6.7 mg/kg/injection, schedule: Q04DX003 (ip), vehicle: Klucel (hydroxypropylcellulose) (HPC)); 165 % of control (dose: 7.0 mg/kg/injection, schedule: Q01DX001 (ip), vehicle: Klucel (hydroxypropylcellulose) (HPC)); 115 % of control (dose: 10.0 mg/kg/injection, schedule: Q04DX003 (ip), vehicle: Klucel (hydroxypropylcellulose) (HPC)); 100 % of control (dose: 10.0 mg/kg/injection, schedule: Q04DX004 (ip), vehicle: Klucel (hydroxypropylcellulose) (HPC)); 96 % of control and 115 % of control and 118 % of control (dose: 12.5 mg/kg/injection, schedule: Q07DX003 (ip), vehicle: saline); 159 % of control (dose: 25.0 mg/kg/injection, schedule: Q01DX001 (ip), vehicle: saline with Tween-80). The T/C is 106 % of control and 115 % of control (dose: 25.0 mg/kg/injection, schedule: Q01DX001 (ip), vehicle: saline); 106 % of control and 109 % of control (dose: 25.0 mg/kg/injection, schedule: Q07DX003 (ip), vehicle: saline); 365 % of control (dose: 50.0 mg/kg/injection, schedule: Q01DX001 (ip), vehicle: saline with Tween-80); 115 % of control under setting [8]; 218 % of control under setting [1].
On to `CC(=O)CCN1C(=O)c2ccccc2C1=O`, for which the T/C under setting [2] was 105 % of control; the T/C under setting [3] is 105 % of control; the T/C under setting [6] is 97 % of control; the T/C under setting [4] was 102 % of control; the T/C under setting [7] was 89 % of control.
For `COC(=O)C1(C)CCC(c2ccc(OC)cc2)CC1=O` (configuration not stated), the T/C runs as follows: under setting [8], 113 % of control; (dose: 50.0 mg/kg/injection, schedule: Q04DX003 (ip), vehicle: Klucel (hydroxypropylcellulose) (HPC)) 93 % of control; under setting [9], 105 % of control; under setting [5], 106 % of control; under setting [10], 105 % of control; under setting [6], 112 % of control.
In the case of `N=c1ccn2c(n1)OC1C(O)C(CO)OC12` (configuration not stated), the T/C reads like this: (dose: 6.0 mg/kg/injection, schedule: Q01DX009 (ip), vehicle: saline) 105 % of control; (dose: 6.2 mg/kg/injection, schedule: Q01DX009 (ip), vehicle: saline) 100 % of control; (dose: 12.0 mg/kg/injection, schedule: Q01DX009 (ip), vehicle: saline) 105 % of control; (dose: 12.5 mg/kg/injection, schedule: Q01DX009 (ip), vehicle: saline) 114 % of control and 120 % of control; (dose: 25.0 mg/kg/injection, schedule: Q04DX003 (ip), vehicle: saline) 100 % of control; (dose: 37.5 mg/kg/injection, schedule: Q01DX009 (ip), vehicle: saline) 111 % of control. Further, the T/C was 111 % of control under setting [8]; 102 % of control (dose: 50.0 mg/kg/injection, schedule: Q04DX003 (ip), vehicle: saline); 91 % of control and 117 % of control under setting [9]; 105 % of control and 111 % of control under setting [10]; 123 % of control (dose: 300.0 mg/kg/injection, schedule: Q01DX001 (ip), vehicle: saline); 153 % of control (dose: 300.0 mg/kg/injection, schedule: Q01DX009 (ip), vehicle: saline). Also, the T/C runs as follows: (dose: 500.0 mg/kg/injection, schedule: Q01DX009 (ip), vehicle: saline) 105 % of control; (dose: 600.0 mg/kg/injection, schedule: Q04DX003 (ip), vehicle: saline) 168 % of control.

The values above are taken from PubChem BioAssay AID190 (DTP/NCI, 2004).
